Data taken from US6143724A, “2-fluorofucosyl-N-aroylglucosamine derivatives, intermediates, therefor, and processes for producing these” (Daikin Industries, Ltd., priority 1997, dated 2000).
Entries after “also recorded” stand apart in the source; their conditions may differ.

Legend:
α-fucosidase = assay: Evaluation of metabolic stability of sialyl Lewis X derivatives to α-fucosidase (TLC spot densitometry); format: in vitro ADME; conditions: for Spot Area: 28° C.
Method: The metabolic stability of various sialyl Lewis X derivatives to α-fucosidase was assayed. The various sialyl Lewis X derivatives which were used in Example [(2F-Fuc-t-Bu) SLcXOSE], Comparative Example 1 (SLeX Ganglioside), and Comparative Example 2 [(2F-Fuc) SLeX Ganglioside] are shown in the following structural formulas. Herein, the compound used in the present Example is the compound represented by said structural formula (β) obtained in said Example 11. [drawing 48] After […] of each sialyl Lewis X derivative was dissolved in 0.1 mL of dist. water, 0.1 mL of ammonium sulfate suspension of α-fucosidase (made by Wako Chemicals: 2 units or more/mg protein) was added to this solution at 28° C., then the reaction solution was charged on a silica gel TLC plate 5715 (made by Merck Company) at every reaction time course. After developing up to 2 cm using developing solvents (n-butanol:acetic acid:water=8:5:4), this was soaked in an aqueous solution of molybdenum phosphate/phosphoric acid/sulfuric acid mixture, and heated to color. The Rf values (moving ratio) on the TLC plate of products decomposed by α-fucosidase and each sialyl Lewis X derivative (substrate) were as follows.
Further, it was confirmed from the mass spectrum that each sialyl Lewis X derivative is decomposed by α-fucosidase, and the corresponding derivatives from which the fucose moiety was removed were produced as respective decomposed products. Further, as shown in following Table 1, the residual rates of the individual sialyl Lewis X derivatives were calculated from each spot area (hereinafter, sometimes referred to merely as the area) after each reaction time course as follows. Herein, each area was measured using a densitometer (software: VILBER LOURMAT BIOID V 6.31a): Residual rate of sialyl Lewis X derivative=(substrate area)/(total area of substrate area plus decomposed product area).

selectins = conditions: cited from earlier work
[1] = test system: acute inflammation of the lung induced by cobra toxin; conditions: rats, Mulligan et al., Nature 364, 149 (1993); cited from earlier work
P selectin = molecular target: T1, P selectin (Homo sapiens, UniProt P16109); conditions: H. Kondo et al., J. Med. Chem. 39, 1339 (1996); cited from earlier work
T1 sequence (P16109 42-830): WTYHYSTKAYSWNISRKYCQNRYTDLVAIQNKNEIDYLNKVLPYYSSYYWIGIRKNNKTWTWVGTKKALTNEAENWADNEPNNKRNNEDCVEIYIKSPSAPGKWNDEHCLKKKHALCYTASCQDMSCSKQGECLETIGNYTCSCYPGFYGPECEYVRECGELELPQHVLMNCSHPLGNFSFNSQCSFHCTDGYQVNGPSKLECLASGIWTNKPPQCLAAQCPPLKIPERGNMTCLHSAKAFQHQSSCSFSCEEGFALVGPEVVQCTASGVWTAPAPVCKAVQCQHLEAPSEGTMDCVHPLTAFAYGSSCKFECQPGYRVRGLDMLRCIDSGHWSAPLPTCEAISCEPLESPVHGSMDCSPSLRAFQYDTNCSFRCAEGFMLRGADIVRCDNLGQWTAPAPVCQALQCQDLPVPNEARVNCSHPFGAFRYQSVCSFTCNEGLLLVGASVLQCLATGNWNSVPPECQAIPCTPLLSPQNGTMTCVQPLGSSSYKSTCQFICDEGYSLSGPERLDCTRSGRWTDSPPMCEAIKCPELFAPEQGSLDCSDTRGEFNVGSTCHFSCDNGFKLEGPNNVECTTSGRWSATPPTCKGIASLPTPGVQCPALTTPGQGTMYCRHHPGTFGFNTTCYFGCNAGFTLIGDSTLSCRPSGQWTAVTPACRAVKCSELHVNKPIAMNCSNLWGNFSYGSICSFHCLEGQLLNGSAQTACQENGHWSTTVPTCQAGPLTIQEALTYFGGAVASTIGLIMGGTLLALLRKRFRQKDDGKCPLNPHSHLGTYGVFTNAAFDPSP

[2] = time course 0 min after addition of α-fucosidase
[3] = time course 0.5 min after addition of α-fucosidase, * = color on the TLC completely disappeared
[4] = time course 1.0 min after addition of α-fucosidase

| Compound | stability against / resistance to decomposition by α-fucosidase (in words, from FIG. 1) (α-fucosidase) | Spot Area (α-fucosidase; [2]) [cm^2] | Spot Area (α-fucosidase; [3]) [cm^2] | Spot Area (α-fucosidase; [4]) [cm^2] | further results |
| --- | --- | --- | --- | --- | --- |
| CCCCCCCCCCCCC/C=C/[C@@H](O)[C@H](CO[C@@H]1O[C@H](CO)[C@@H](O[C@@H]2O[C@H](CO)[C@H](O)[C@H](O[C@@H]3O[C@H](CO)[C@@H](O[C@@H]4O[C@H](CO)[C@H](O)[C@H](O[C@]5(C(=O)O)C[C@H](O)[C@@H](NC(C)=O)[C@H]([C@H](O)[C@H](O)CO)O5)[C@H]4O)[C@H](O[C@@H]4O[C@@H](C)[C@@H](O)[C@@H](O)[C@@H]4O)[C@H]3NC(C)=O)[C@H]2O)[C@H](O)[C@H]1O)NC(=O)CCCCCCCCCCCCCCCCC [Comparative Example 1] | rapid decomposition | 1.0 | 0.0 | – | – |
| CCCCCCCCCCCCC/C=C/[C@@H](O)[C@H](CO[C@@H]1O[C@H](CO)[C@@H](O[C@@H]2O[C@H](CO)[C@H](O)[C@H](O[C@@H]3O[C@H](CO)[C@@H](O[C@@H]4O[C@H](CO)[C@H](O)[C@H](O[C@]5(C(=O)O)C[C@H](O)[C@@H](NC(C)=O)[C@H]([C@H](O)[C@H](O)CO)O5)[C@H]4O)[C@H](O[C@@H]4O[C@@H](C)[C@@H](O)[C@@H](O)[C@@H]4F)[C@H]3NC(C)=O)[C@H]2O)[C@H](O)[C@H]1O)NC(=O)CCCCCCCCCCCCCCCCCCCCCCC [Comparative Example 2] | weak resistance to decomposition | 1.0 | 0.36 | 0.30 | – |
| CC(=O)NC1C(O)CC(OC2C(O)C(CO)OC(OC3C(CO)OC(OC4C(O)C(CO)OC(OC5C(CO)OC(OCC[Si](C)(C)C)C(O)C5O)C4O)C(NC(=O)c4ccc(C(C)(C)C)cc4)C3OC3OC(C)C(O)C(O)C3F)C2O)(C(=O)O)OC1C(O)C(O)CO [Example, 2-(trimethylsilyl)ethyl O-(5-acetamide-3,5-dideoxy-D-glycero-α-D-galacto-2-nunolopyranosylonic acid)-(2→3)-O-β-D-galactopyranosyl-(1→4)-O-[(2-deoxy-2-fluoro-α-L-fucopyranosyl)-(1→3)]-O-[(2-deoxy-2-(4-t-butylbenzamide)-β-D-glucopyranosyl)]-(1→3)-(O-β-D-galactopyranosyl)-(1→4)-β-D-glucopyranoside] | excellent in stability against α-fucosidase; also recorded: strongly resistant to decomposition reaction | 1.0 | – | 0.73 | Spot Area (α-fucosidase; time course 2.0 min after addition of α-fucosidase): 0.44 cm^2 |
| CCCCCCCCCCCCCCC(CCCCCCCCCCCCCC)CO[C@@H]1O[C@H](CO)[C@@H](O[C@@H]2O[C@H](CO)[C@H](O)[C@H](OS(=O)(=O)O)[C@H]2O)[C@H](O[C@@H]2O[C@@H](C)[C@@H](O)[C@@H](O)[C@@H]2O)[C@H]1NC(C)=O [GSC-150] | – | – | – | – | selectin adhesion-inhibitory activity (in words) (selectins): powerful selectin blocker |
| CC(=O)NC1C(O)CC(OC2C(O)C(CO)OC(OC3C(CO)OC(O)C(NC(C)=O)C3OC3OC(C)C(O)C(O)C3O)C2O)(C(=O)O)OC1C(O)C(O)CO (centres unmarked) [structural formula (III)] | – | – | – | – | acute inflammation of the lung [1]: reduced |
| CC(=O)NC1COC(CO)C(OC2OC(CO)C(O)C(OC3(C(=O)O)CC(O)C(NC(C)=O)C(C(O)C(O)CO)O3)C2O)C1OC1OC(C)C(O)C(O)C1O (centres unmarked) [structural formula (V)] | – | – | – | – | adhesion-inhibitory activity to P selectin relative to the sialyl Lewis X glycoside of Structural Formula (III) (P selectin): 20 times |
